Reference: ChEMBL document CHEMBL4622831, “Anti-diabetic drugs recent approaches and advancements” (Bioorg Med Chem, 2020)

Columns and labels:
[1] = biological target: T1, Glucose-dependent insulinotropic receptor (Homo sapiens, UniProt Q8TDV5); assay: Agonist activity at human GPR119
T1 sequence (Q8TDV5 whole entry): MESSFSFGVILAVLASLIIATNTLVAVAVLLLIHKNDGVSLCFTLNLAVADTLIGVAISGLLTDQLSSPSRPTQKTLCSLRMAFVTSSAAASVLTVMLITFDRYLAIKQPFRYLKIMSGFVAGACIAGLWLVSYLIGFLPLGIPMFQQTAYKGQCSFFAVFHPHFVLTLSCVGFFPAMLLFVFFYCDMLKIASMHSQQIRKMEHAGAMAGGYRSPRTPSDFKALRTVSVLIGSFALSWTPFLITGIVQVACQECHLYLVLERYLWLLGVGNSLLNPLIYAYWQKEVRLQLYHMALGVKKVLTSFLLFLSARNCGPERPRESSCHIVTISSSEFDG

Dipeptidyl peptidase 4 [2] = biological target: T2, Dipeptidyl peptidase 4 (Homo sapiens, UniProt P27487); assay: Inhibition of recombinant human DPP4 using Gly-Pro-AMC as substrate preincubated for 10 mins followed by substrate addition
T2 sequence (P27487 whole entry): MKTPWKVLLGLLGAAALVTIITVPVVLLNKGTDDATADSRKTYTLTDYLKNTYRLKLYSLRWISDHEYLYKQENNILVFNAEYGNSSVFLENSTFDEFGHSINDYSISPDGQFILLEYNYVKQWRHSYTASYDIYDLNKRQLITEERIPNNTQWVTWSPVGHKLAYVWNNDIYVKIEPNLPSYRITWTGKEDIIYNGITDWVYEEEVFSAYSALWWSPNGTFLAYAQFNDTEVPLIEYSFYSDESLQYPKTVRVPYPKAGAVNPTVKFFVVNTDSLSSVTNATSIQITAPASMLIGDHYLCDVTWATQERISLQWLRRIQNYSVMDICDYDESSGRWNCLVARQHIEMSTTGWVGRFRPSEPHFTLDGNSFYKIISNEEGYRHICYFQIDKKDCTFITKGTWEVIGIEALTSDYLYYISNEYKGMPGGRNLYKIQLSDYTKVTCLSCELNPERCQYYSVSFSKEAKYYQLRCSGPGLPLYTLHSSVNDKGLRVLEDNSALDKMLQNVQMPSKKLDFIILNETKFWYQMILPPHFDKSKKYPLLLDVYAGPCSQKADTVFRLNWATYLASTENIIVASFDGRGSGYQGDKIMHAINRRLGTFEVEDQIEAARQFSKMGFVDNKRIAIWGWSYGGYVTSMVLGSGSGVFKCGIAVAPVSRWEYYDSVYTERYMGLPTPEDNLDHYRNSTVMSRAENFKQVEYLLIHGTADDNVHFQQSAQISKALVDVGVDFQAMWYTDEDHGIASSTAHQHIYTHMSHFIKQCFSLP

Dipeptidyl peptidase 4 [3] = biological target: T2, Dipeptidyl peptidase 4; assay: Inhibition of recombinant human DPP4 using Gly-Pro-AMC as substrate preincubated for 10 mins followed by substrate addition by florescence assay
[4] = biological target: T3, Sodium/glucose cotransporter 2 (Homo sapiens, UniProt P31639); assay: Inhibition of human SGLT2
T3 sequence (P31639 whole entry): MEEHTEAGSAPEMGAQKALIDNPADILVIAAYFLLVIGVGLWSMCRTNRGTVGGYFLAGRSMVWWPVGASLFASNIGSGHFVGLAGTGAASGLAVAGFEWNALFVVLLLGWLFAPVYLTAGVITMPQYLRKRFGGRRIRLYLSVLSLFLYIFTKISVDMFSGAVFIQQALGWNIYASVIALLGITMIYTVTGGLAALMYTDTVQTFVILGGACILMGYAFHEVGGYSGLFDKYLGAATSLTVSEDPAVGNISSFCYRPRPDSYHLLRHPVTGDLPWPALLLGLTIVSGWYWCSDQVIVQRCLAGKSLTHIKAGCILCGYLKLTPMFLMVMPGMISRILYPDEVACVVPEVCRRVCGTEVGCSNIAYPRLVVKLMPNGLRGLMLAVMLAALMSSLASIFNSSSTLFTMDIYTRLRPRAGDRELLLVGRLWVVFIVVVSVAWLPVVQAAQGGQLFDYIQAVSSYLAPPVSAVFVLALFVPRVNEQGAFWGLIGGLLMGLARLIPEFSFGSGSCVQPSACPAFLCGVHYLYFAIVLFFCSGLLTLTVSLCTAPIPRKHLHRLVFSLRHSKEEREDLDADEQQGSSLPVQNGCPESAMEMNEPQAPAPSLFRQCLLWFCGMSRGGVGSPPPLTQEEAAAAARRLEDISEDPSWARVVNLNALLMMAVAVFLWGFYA

[5] = biological target: T4, Sodium/glucose cotransporter 1 (Homo sapiens, UniProt P13866); assay: Inhibition of human SGLT1
T4 sequence (P13866 whole entry): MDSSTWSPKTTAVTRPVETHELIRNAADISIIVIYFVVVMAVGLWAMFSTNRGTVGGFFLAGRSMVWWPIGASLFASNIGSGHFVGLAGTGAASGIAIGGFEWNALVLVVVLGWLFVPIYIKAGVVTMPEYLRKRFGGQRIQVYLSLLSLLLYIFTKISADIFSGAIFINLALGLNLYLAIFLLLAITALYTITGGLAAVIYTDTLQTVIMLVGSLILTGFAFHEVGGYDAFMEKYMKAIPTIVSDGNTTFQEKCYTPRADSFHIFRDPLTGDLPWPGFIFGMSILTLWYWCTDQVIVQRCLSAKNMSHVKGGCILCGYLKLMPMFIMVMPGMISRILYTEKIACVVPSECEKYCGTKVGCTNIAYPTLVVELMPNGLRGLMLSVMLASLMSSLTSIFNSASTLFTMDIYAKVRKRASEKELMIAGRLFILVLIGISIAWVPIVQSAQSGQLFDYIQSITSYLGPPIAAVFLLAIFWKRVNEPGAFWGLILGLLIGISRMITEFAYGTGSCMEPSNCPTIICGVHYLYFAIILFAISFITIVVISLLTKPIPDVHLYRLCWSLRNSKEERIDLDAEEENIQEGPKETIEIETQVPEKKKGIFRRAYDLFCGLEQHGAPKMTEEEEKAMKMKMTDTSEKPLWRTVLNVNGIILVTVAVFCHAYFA

[6] = Inhibition of Saccharomyces cerevisiae alpha-glucosidase using p-nitrophenyl glucopyranoside as substrate preincubated for 10 mins followed by substrate addition measured after 20 mins by spectrophotometric analysis
[7] = Toxicity in mouse; format: organism-based; conditions: in vivo

## CC(C)(C)OC(=O)N1C2CCC1CC(Nc1nc(Nc3ccc(S(C)(=O)=O)cc3F)nc3c1CCCC3)C2 (configuration not stated)
[1]
  EC50: 0.27 µM

## CC#CCn1c(N2CCC[C@@H](N)C2)cc(=O)n(Cc2cn(CC(=O)N(C)C)nn2)c1=O
Dipeptidyl peptidase 4 [2]
  IC50: 0.0286 µM

## Cc1ccc(NS(=O)(=O)c2ccc3c(c2)CCCC3)cc1
Dipeptidyl peptidase 4 [3]
  IC50: 0.0028 µM

## ONC[C@H]1C[C@@H](n2cc(Cc3ccc(C4CC4)cc3)c3c(Cl)cccc32)[C@H](O)[C@@H](O)[C@@H]1O
[4]
  EC50: 0.033 µM
[5]
  EC50: 0.037 µM

## COc1ccc2c(c1)C(SCC(=O)NCc1ccc(C)cc1)c1ccc(Cl)cc1C2 (configuration not stated)
[6]
  IC50: 80 µM

## N#C[C@@H]1CCCN1C(=O)CNC12CC3CC(CC(O)(C3)C1)C2 [VILDAGLIPTIN]
[7]
  MTD: 2000 mg/kg
